Measurements: the supplement of paper PMC10307832

Legend:
Assay in all cases: relative viability (nuclei count vs DMSO), 5 days (fraction); higher = more cells survive
Ruxolitinib + Pictilisib = compound: N#CC[C@H](C1CCCC1)n1cc(-c2ncnc3[nH]ccc23)cn1 [Ruxolitinib] + CS(=O)(=O)N1CCN(Cc2cc3nc(-c4cccc5[nH]ncc45)nc(N4CCOCC4)c3s2)CC1 [Pictilisib] (partner 1 µM)
How it was run: (§1)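 Lung cancer cell lines were pin-tool dosed in 1536-well plates on the day after seeding, with either a lone drug or a fixed anchor-drug dose plus five library-drug doses (not always all listed) in √10 steps. Nuclei were counted on 4× images after 5 days. Relative viability is the ratio of treated-well to vehicle-well nuclei counts, with each value a median of duplicate plates.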

VE-821 + Luminespib = compound: CS(=O)(=O)c1ccc(-c2cnc(N)c(C(=O)Nc3ccccc3)n2)cc1 [VE-821] + CCNC(=O)c1noc(-c2cc(C(C)C)c(O)cc2O)c1-c1ccc(CN2CCOCC2)cc1 [Luminespib] (partner 0.01 µM)
How it was run: as §1

Ruxolitinib + Vorinostat = compound: N#CC[C@H](C1CCCC1)n1cc(-c2ncnc3[nH]ccc23)cn1 [Ruxolitinib] + O=C(CCCCCCC(=O)Nc1ccccc1)NO [Vorinostat] (partner 1 µM)
How it was run: as §1

Vismodegib + Vorinostat = compound: CS(=O)(=O)c1ccc(C(=O)Nc2ccc(Cl)c(-c3ccccn3)c2)c(Cl)c1 [Vismodegib] + O=C(CCCCCCC(=O)Nc1ccccc1)NO [Vorinostat] (partner 1 µM)
How it was run: as §1

Cell Line	relative viability (Ruxolitinib + Pictilisib; first compound 0.08 µM)	relative viability (Ruxolitinib + Pictilisib; first compound 0.253 µM)	relative viability (Ruxolitinib + Pictilisib; first compound 0.8 µM)	relative viability (Ruxolitinib + Pictilisib; first compound 2.53 µM)	relative viability (Ruxolitinib + Pictilisib; first compound 8 µM)	relative viability (VE-821 + Luminespib; first compound 0.08 µM)	relative viability (VE-821 + Luminespib; first compound 0.253 µM)	relative viability (VE-821 + Luminespib; first compound 0.8 µM)	relative viability (VE-821 + Luminespib; first compound 2.53 µM)	relative viability (VE-821 + Luminespib; first compound 8 µM)	relative viability (Ruxolitinib + Vorinostat; first compound 0.08 µM)	relative viability (Ruxolitinib + Vorinostat; first compound 0.253 µM)	relative viability (Ruxolitinib + Vorinostat; first compound 0.8 µM)	relative viability (Ruxolitinib + Vorinostat; first compound 2.53 µM)	relative viability (Ruxolitinib + Vorinostat; first compound 8 µM)	relative viability (Vismodegib + Vorinostat; first compound 0.08 µM)	relative viability (Vismodegib + Vorinostat; first compound 0.253 µM)	relative viability (Vismodegib + Vorinostat; first compound 0.8 µM)	relative viability (Vismodegib + Vorinostat; first compound 2.53 µM)	relative viability (Vismodegib + Vorinostat; first compound 8 µM)
201T	0.745	0.687	0.75	0.826	0.8	1.06	1.03	1.06	1.06	0.934	1.12	1.16	1.21	1.25	1.17	0.956	0.952	0.973	0.977	0.924
A549	0.579	0.529	0.576	0.407	0.233	–	–	–	–	–	–	–	–	–	–	–	–	–	–	–
A-427	0.742	0.749	0.773	0.371	0.629	1.08	1	0.69	0.745	0.3	0.906	0.879	0.9	0.974	0.841	0.923	0.862	0.814	0.872	0.84
ABC-1	0.875	0.742	0.867	0.705	0.738	0.614	0.401	0.469	0.49	0.328	–	1.18	1.4	0.825	0.907	1.55	0.987	0.873	1.23	1.24
BEN	0.494	0.583	0.647	0.53	0.584	0.414	0.374	0.376	0.344	0.322	0.524	0.557	0.653	0.519	0.586	0.581	0.527	0.578	0.531	0.528
CAL-12T	–	0.355	0.416	0.435	0.471	0.655	0.363	0.4	0.327	0.137	0.86	0.693	0.848	0.653	0.69	0.894	0.699	0.787	0.705	0.799
COR-L23	0.755	0.748	0.795	0.625	0.531	0.835	0.651	0.633	0.342	0.446	0.579	0.347	0.463	0.403	0.287	0.408	0.478	0.388	0.384	0.451
COR-L 105	0.379	0.389	0.407	0.344	0.334	0.692	0.771	0.51	0.632	0.524	–	0.721	0.785	0.488	0.615	0.94	0.803	0.829	0.826	0.71
Calu-6	0.99	0.943	0.958	0.828	0.667	–	–	–	–	–	–	–	–	–	–	–	–	–	–	–
ChaGo-K-1	–	0.555	0.668	0.776	0.727	0.537	0.481	0.445	0.582	0.312	0.771	0.764	0.707	0.62	0.637	0.761	0.739	0.799	0.754	0.708
EBC-1	0.386	0.309	0.583	0.353	0.32	–	–	–	–	–	–	–	–	–	–	–	–	–	–	–
EKVX	0.323	0.385	0.451	0.44	0.521	0.96	0.77	0.763	0.939	0.815	0.57	0.744	0.719	0.628	0.588	0.77	0.752	0.802	0.907	0.655
EMC-BAC-2	0.534	0.495	0.57	0.495	0.384	1.36	1.15	1.09	1.11	0.931	0.412	0.432	0.443	0.621	0.279	0.515	0.302	0.418	0.476	0.422
EPLC-272H	0.141	0.36	0.336	0.281	0.268	0.265	0.301	0.179	0.288	0.221	0.586	0.447	0.463	0.249	0.337	0.398	0.368	0.49	0.329	0.509
H3255	0.206	0.435	0.516	0.427	0.48	0.903	0.782	0.78	0.915	0.973	–	0.9	0.892	0.791	0.382	0.488	0.747	0.915	0.835	0.782
HARA	0.467	0.472	0.404	0.426	0.328	0.956	0.836	0.579	0.695	0.448	0.594	0.576	0.566	0.488	0.512	0.501	0.546	0.521	0.495	0.453
HCC-15	0.701	0.77	0.789	0.703	0.737	0.37	0.175	0.517	0.422	0.315	0.903	0.862	0.864	0.741	0.776	0.844	0.774	0.86	0.781	0.859

Cell Line	relative viability (Ruxolitinib + Pictilisib; first compound 0.08 µM)	relative viability (Ruxolitinib + Pictilisib; first compound 0.253 µM)	relative viability (Ruxolitinib + Pictilisib; first compound 0.8 µM)	relative viability (Ruxolitinib + Pictilisib; first compound 2.53 µM)	relative viability (Ruxolitinib + Pictilisib; first compound 8 µM)	relative viability (VE-821 + Luminespib; first compound 0.08 µM)	relative viability (VE-821 + Luminespib; first compound 0.253 µM)	relative viability (VE-821 + Luminespib; first compound 0.8 µM)	relative viability (VE-821 + Luminespib; first compound 2.53 µM)	relative viability (VE-821 + Luminespib; first compound 8 µM)	relative viability (Ruxolitinib + Vorinostat; first compound 0.08 µM)	relative viability (Ruxolitinib + Vorinostat; first compound 0.253 µM)	relative viability (Ruxolitinib + Vorinostat; first compound 0.8 µM)	relative viability (Ruxolitinib + Vorinostat; first compound 2.53 µM)	relative viability (Ruxolitinib + Vorinostat; first compound 8 µM)	relative viability (Vismodegib + Vorinostat; first compound 0.08 µM)	relative viability (Vismodegib + Vorinostat; first compound 0.253 µM)	relative viability (Vismodegib + Vorinostat; first compound 0.8 µM)	relative viability (Vismodegib + Vorinostat; first compound 2.53 µM)	relative viability (Vismodegib + Vorinostat; first compound 8 µM)
HCC-44	0.594	0.649	0.686	0.463	0.307	1.34	0.97	0.908	1.14	0.807	1.11	1.06	1.03	1.04	1.05	1.21	1.02	1.1	1.08	1.11
HCC-78	0.162	0.14	0.207	0.255	0.216	–	–	–	–	–	0.412	0.455	0.429	0.439	0.395	0.425	0.403	0.453	0.492	0.42
HCC-366	0.154	0.134	0.161	0.094	0.101	–	–	–	–	–	0.34	0.321	0.423	0.192	0.167	0.46	0.37	0.25	0.354	0.285
HCC-827	0.654	0.973	0.919	0.906	0.944	0.599	0.686	0.277	0.696	0.489	–	0.871	0.767	0.751	0.84	0.878	0.903	0.909	0.774	0.861
HOP-62	–	0.743	0.876	0.63	0.839	0.966	0.822	0.981	0.694	0.596	0.606	0.59	0.688	0.594	0.685	0.681	0.591	0.535	0.58	0.469
IA-LM	0.349	0.35	0.387	0.544	0.46	–	–	–	–	–	0.896	1.12	1.17	0.929	1.19	0.735	0.951	0.843	0.947	1.03
LC-2-ad	0.41	0.313	0.519	0.362	0.211	1.18	1.09	1.19	1.24	1	0.798	0.715	0.728	0.698	0.64	0.7	0.729	0.701	0.667	0.529
LCLC-97TM1	0.182	0.153	0.214	0.158	0.198	0.821	0.795	0.952	0.993	0.709	0.741	0.604	0.734	0.722	0.63	0.731	0.64	0.656	0.632	0.42
NCI-H522	–	–	–	–	–	1.11	1.21	0.958	0.997	0.897	0.949	0.868	0.978	0.873	0.859	1.02	0.886	0.808	0.941	0.806
NCI-H1299	0.773	0.761	0.883	0.716	0.504	–	–	–	–	–	–	–	–	–	–	–	–	–	–	–
NCI-H1563	0.653	0.669	0.691	0.623	0.661	0.56	0.499	0.491	0.509	0.338	–	–	–	–	–	–	–	–	–	–
NCI-H1623	–	–	–	–	–	0.588	0.473	0.605	0.509	0.505	–	–	–	–	–	–	–	–	–	–
NCI-H1648	–	–	–	–	–	–	–	–	–	–	0.331	0.408	0.984	0.748	0.895	0.607	0.757	0.389	0.465	0.512
NCI-H1703	0.255	0.265	0.232	0.24	0.205	–	–	–	–	–	–	–	–	–	–	–	–	–	–	–
NCI-H1792	0.259	0.289	0.278	0.197	0.214	0.462	0.524	0.367	0.506	0.359	–	–	–	–	–	–	–	–	–	–
NCI-H2342	–	–	–	–	–	0.8	0.65	0.552	0.708	0.717	0.82	0.706	0.833	0.724	0.823	0.747	0.597	0.805	0.735	0.652
SW 900	–	–	–	–	–	0.199	0.187	0.156	0.167	0.152	0.587	0.746	0.774	0.707	0.881	0.457	0.415	0.435	–	0.602
